# Measured values as given in patent US20170291905A1, “ARGININE […] INHIBITORS AND USES THEREOF” (Epizyme, Inc., priority 2014, published 2017).
# Where a name gives a salt, the structure may show the parent alone.
# Target: full-length human PRMT6 (Flag- and His-tagged) (Homo sapiens, UniProt Q96LA8)
# Test: PRMT6 biochemical assay (3H-SAM Flashplate, histone H4 36-50 K44me1 peptide)
# Details: 1 nM PRMT6, 30 min preincubation, 75 nM peptide
# Description: S-adenosylmethionine (SAM), S-adenosylhomocysteine (SAH), bicine, Tween20, dimethylsulfoxide (DMSO), bovine skin gelatin (BSG), sodium butyrate and Tris(2-carboxyethyl)phosphine hydrochloride solution (TCEP) were purchased from Sigma-Aldrich at the highest level of purity possible. ^3H-SAM was purchase from American Radiolabeled Chemicals with a specific activity of 80 Ci/mmol. 384-well streptavidin Flashplates were purchased from PerkinElmer.
# Peptide representative of human histone H4 residues 36-50 was synthesized with an N-terminal linker-affinity tag motif and a C-terminal amide cap by 21st Century Biochemicals. The peptide was purified by high-performance liquid chromatography (HPLC) to greater than 95% purity and confirmed by liquid chromatography mass spectrometry (LC-MS). The sequence was Biot-Ahx-[…]-amide and contained a monomethylated lysine at position 44 (SEQ ID NO.:5).
# Full-length human PRMT6 (NM_018137.2) transcript clone was amplified from an HEK 293 cDNA library, incorporating a flanking 5′ sequence encoding a FLAG tag ([…]) (SEQ ID NO.:6) fused directly to Ser 2 of PRMT6 and a 3′ sequence encoding a hexa His sequence (HHHHHH) (SEQ ID NO.: 17) fused directly to Asp 375. The amplified gene was subcloned into pFastBacMam (Viva Biotech).
# Recombinant baculovirus were generated according to Bac-to-Bac kit instructions (Life Technologies). […] Infections were carried out at 37° C. for 48 hours, harvested by centrifugation, and stored at −80° C. for purification.
# Column was washed with 20 mM imidazole in the same buffer and Flag-PRMT6-His was eluted with 150 mM imidazole. Pooled fractions were dialysed against buffer Ni-A and further purified by anti-flag M2 affinity chromatography. Flag-PRMT6-His was eluted with 200 ug/ml FLAG peptide in the same buffer. Pooled fractions were dialysed in 20 mM Tris, 150 mM NaCl, 10% glycerol and 5 mM β-mercaptoethanol, pH 7.8. The purity of recovered protein was 95%.
# General Procedure for PRMT6 Enzyme Assays on Peptide Substrates.
# The assays were all performed in a buffer consisting of 20 mM Bicine (pH=7.6), 1 mM TCEP, 0.005% BSG, and 0.002% Tween 20, prepared on the day of use. Compounds in 100% DMSO (1 ul) were spotted into a polypropylene 384-well V-bottom plates (Greiner) using a Platemate Plus outfitted with a 384-channel head (Thermo Scientific). DMSO (1 ul) was added to Columns 11, 12, 23, 24, rows A-H for the maximum signal control and 1 ul of SAH, a known product and inhibitor of PRMT6, was added to columns 11, 12, 23, 24, rows I-P for the minimum signal control. A cocktail (40 ul) containing the PRMT6 enzyme was added by Multidrop Combi (Thermo-Fisher). The compounds were allowed to incubate with PRMT6 for 30 min at room temperature, then a cocktail (10 ul) containing SAM and peptide was added to initiate the reaction (final volume=51 ul). The final concentrations of the components were as follows: PRMT6 was 1 nM, ^3H-SAM was 200 nM, non-radiolabeled SAM was 250 nM, peptide was 75 nM, SAH in the minimum signal control wells was 1 mM, and the DMSO concentration was 2%. The assays were stopped by the addition of non-radiolabeled SAM (10 ul) to a final concentration of 400 uM, which dilutes the ^3H-SAM to a level where its incorporation into the peptide substrate is no longer detectable. 50 ul of the reaction in the 384-well polypropylene plate was then transferred to a 384-well Flashplate and the biotinylated peptides were allowed to bind to the streptavidin surface for at least 1 hour before being washed once with 0.1% Tween20 in a Biotek ELx405 plate washer. The plates were then read in a PerkinElmer TopCount plate reader to measure the quantity of ^3H-labeled peptide bound to the Flashplate surface, measured as disintegrations per minute (dpm) or alternatively, referred to as counts per minute (cpm).
# Where dpm=disintegrations per minute, cmpd=signal in assay well, and min and max are the respective minimum and maximum signal controls. […]
# full-length human PRMT6 (Flag- and His-tagged), sequence (Q96LA8 with tags, fused parts or gaps): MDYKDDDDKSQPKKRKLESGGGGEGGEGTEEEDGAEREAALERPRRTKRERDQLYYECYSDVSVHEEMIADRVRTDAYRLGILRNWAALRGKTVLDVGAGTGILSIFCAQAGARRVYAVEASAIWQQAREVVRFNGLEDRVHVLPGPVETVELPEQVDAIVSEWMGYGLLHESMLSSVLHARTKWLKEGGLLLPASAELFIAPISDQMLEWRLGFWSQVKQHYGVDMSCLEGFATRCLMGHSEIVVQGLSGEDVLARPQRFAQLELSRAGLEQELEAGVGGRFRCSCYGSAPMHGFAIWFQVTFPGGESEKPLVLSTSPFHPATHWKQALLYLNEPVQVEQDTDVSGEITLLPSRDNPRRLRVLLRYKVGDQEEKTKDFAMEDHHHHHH
row,IC50 [nM],SMILES
1,107,"CNCCN(C)Cc1c[nH]nc1[C@@H]1CC[C@@H](OCCCOC)C2(CCCC2)C1 (racemic) [compound 26, N1-((3-((7R,10R)-10-(3-methoxypropoxy)spiro[4.5]decan-7-yl)-1H-pyrazol-4-yl)methyl)-N1,N2-dimethylethane-1,2-diamine]"
2,383,"CNCCN(C)Cc1c[nH]nc1[C@@H]1CC[C@H](OCCCOC)C2(CCCC2)C1 (racemic) [compound 27, N1-((3-((7R,10S)-10-(3-methoxypropoxy)spiro[4.5]decan-7-yl)-1H-pyrazol-4-yl)methyl)-N1,N2-dimethylethane-1,2-diamine]"
3,262,"CNCCNCc1c[nH]nc1[C@H]1CC[C@@]2(CC1)CC(C)(C)CO2 [compound 28, N1-((3-((5s,8s)-3,3-dimethyl-1-oxaspiro[4.5]decan-8-yl)-1H-pyrazol-4-yl)methyl)-N2-methylethane-1,2-diamine]"
4,1910,"CNCCNCc1c[nH]nc1[C@H]1CC[C@]2(CC1)CC(C)(C)CO2 [compound 29, N1-((3-((5r,8r)-3,3-dimethyl-1-oxaspiro[4.5]decan-8-yl)-1H-pyrazol-4-yl)methyl)-N2-methylethane-1,2-diamine]"
5,60.3,"CNCCN(C)Cc1c[nH]nc1C1CCC(C)(C)[C@H](COCCCOC)C1 (stereo partly drawn) [compound 30, {2-[({3-[(3R)-3-[(3-methoxypropoxy)methyl]-4,4-dimethylcyclohexyl]-1H-pyrazol-4-yl}methyl)(methyl)amino]ethyl}(methyl)amine]"
6,45.6,"CCOC[C@@H]1CC(c2n[nH]cc2CN(C)CCNC)CCC1(C)C (stereo partly drawn) [compound 31, {2-[({3-[(3R)-3-(ethoxymethyl)-4,4-dimethylcyclohexyl]-1H-pyrazol-4-yl}methyl)(methyl)amino]ethyl}(methyl)amine]"
7,16.3,"CNCCN(C)Cc1c[nH]nc1C1CCC(C)(C)[C@H](CO)C1 (stereo partly drawn) [compound 32, [(1R)-2,2-dimethyl-5-[4-({methyl[2-(methylamino)ethyl]amino}methyl)-1H-pyrazol-3-yl]cyclohexyl]methanol]"
8,20.8,"CCC1(CC)C[C@]2(CC[C@H](c3n[nH]cc3CN(C)CCNC)CC2)OC1=O [compound 33, (5s,8s)-3,3-diethyl-8-(4-((methyl(2-(methylamino)ethyl)amino)methyl)-1H-pyrazol-3-yl)-1-oxaspiro[4.5]decan-2-one]"
9,10.6,"CCC1(CC)C[C@]2(CC[C@@H](c3n[nH]cc3CN(C)CCNC)CC2)OC1=O [compound 34, (5r,8r)-3,3-diethyl-8-(4-((methyl(2-(methylamino)ethyl)amino)methyl)-1H-pyrazol-3-yl)-1-oxaspiro[4.5]decan-2-one]"

# Second part, the molecule before the results:
row,SMILES,IC50 [nM]
1,"CNCCN(C)Cc1c[nH]nc1C1CCC(OCCCOC)C2(CCCC2)C1 (mixture of isomers) [compound 19, N1-((3-(10-(3-methoxypropoxy)spiro[4.5]decan-7-yl)-1H-pyrazol-4-yl)methyl)-N1,N2-dimethylethane-1,2-diamine dihydrochloride]",191
2,CNCCN(C)Cc1c[nH]nc1C1CC(COCC2CC2)CC(COCC2CC2)C1 (centres unmarked) [compound 2],741
3,CNCCN(C)Cc1c[nH]nc1[C@H]1CC[C@@]2(CCCCO2)CC1 [compound 3],27.7
4,"CNCCN(C)Cc1c[nH]nc1[C@H]1CC[C@]2(CCCOC2)CC1 [compound 4, N1-((3-((6s,9s)-2-oxaspiro[5.5]undecan-9-yl)-1H-pyrazol-4-yl)methyl)-N1,N2-dimethylethane-1,2-diamine]",33.1
5,"CNCCN(C)Cc1c[nH]nc1[C@H]1CC[C@@]2(CCCOC2)CC1 [compound 5, N1-((3-((6r,9r)-2-oxaspiro[5.5]undecan-9-yl)-1H-pyrazol-4-yl)methyl)-N1,N2-dimethylethane-1,2-diamine]",35.9
6,CNCCN(C)Cc1c[nH]nc1C1CCC(COCC(C)C)(COCC(C)C)CC1 [compound 6],32
7,"CNCCN(C)Cc1c[nH]nc1C1CCC2(CCC(OC)CC2)CC1 (centres unmarked) [compound 9, N1-((3-(9-methoxyspiro[5.5]undecan-3-yl)-1H-pyrazol-4-yl)methyl)-N1,N2-dimethylethane-1,2-diamine]",13.5
8,CNCCN(C)Cc1c[nH]nc1[C@H]1CC[C@]2(CCN(CCC(C)C)C2=O)CC1 [compound 10],38.5
9,"CNCCN(C)Cc1c[nH]nc1[C@H]1CC[C@@]2(CCN(CCC(C)C)C2=O)CC1 [compound 11, (5r,8r)-2-isopentyl-8-(4-((methyl(2-(methylamino)ethyl)amino)methyl)-1H-pyrazol-3-yl)-2-azaspiro[4.5]decan-1-one]",18.6
10,CNCCN(C)Cc1c[nH]nc1C1C[C@@H](C(=O)N(C)CC(C)C)C(C)(C)[C@H](C(=O)N(C)CC(C)C)C1 (some centres unmarked) [compound 12],> 10000
11,CNCCN(C)Cc1c[nH]nc1C1C[C@H](C(=O)NCCOC)C(C)(C)[C@H](C(=O)NCCOC)C1 (some centres unmarked) [compound 13],> 10000
12,"CCN(C)C(=O)C1CC(c2n[nH]cc2CN(C)CCNC)CC(C(=O)NCCC(C)C)C1(C)C (centres unmarked) [compound 14, N1-ethyl-N3-isopentyl-N1,2,2-trimethyl-5-(4-((methyl(2-(methylamino)ethyl)amino)methyl)-1H-pyrazol-3-yl)cyclohexane-1,3-dicarboxamide]",> 10000
13,"CNCCN(C)Cc1c[nH]nc1C1=CCC(CF)(CF)CC1 [compound 15, N-((3-(4,4-bis(fluoromethyl)cyclohex-1-en-1-yl)-1H-pyrazol-4-yl)methyl)-N1,N2-dimethylethane-1,2-diamine]",16.7
14,"CNCCN(C)Cc1c[nH]nc1C1=CCC(COCC(F)(F)F)CC1 (centres unmarked) [compound 16, N1,N2-dimethyl-N1-((3-(4-((2,2,2-trifluoroethoxy)methyl)cyclohex-1-en-1-yl)-1H-pyrazol-4-yl)methyl)ethane-1,2-diamine]",17
15,"CNCCN(C)Cc1c[nH]nc1C1CCC(C)(C)[C@H](OCC(C)C)C1 (stereo partly drawn) [compound 20, ({3-[(3R)-4,4-dimethyl-3-(2-methylpropoxy)cyclohexyl]-1H-pyrazol-4-yl}methyl)(methyl)[2-(methylamino)ethyl]amine]",74.8
16,"CCC1CC(c2n[nH]cc2CN(C)CCNC)CC(C(=O)NCCOC)C1(C)C (centres unmarked) [compound 21, 3-ethyl-N-(2-methoxyethyl)-2,2-dimethyl-5-[4-([methyl[2-(methylamino)ethyl]amino]methyl)-1H-pyrazol-3-yl]cyclohexane-1-carboxamide dihydrochloride]",789
17,"CCC1(CC)CC2(CCC(c3n[nH]cc3CN(C)CCNC)CC2)N(C)C1=O (centres unmarked) [compound 22, 3,3-diethyl-1-methyl-8-(4-((methyl(2-(methylamino)ethyl)amino)methyl)-1H-pyrazol-3-yl)-1-azaspiro[4.5]decan-2-one]",62.7
18,"CNCCN(C)Cc1c[nH]nc1[C@H]1CC[C@@H](COCC(F)(F)F)CC1 [compound 23, N1,N2-dimethyl-N1-((3-((1s,4s)-4-((2,2,2-trifluoroethoxy)methyl)cyclohexyl)-1H-pyrazol-4-yl)methyl)ethane-1,2-diamine]",78.5
19,"CNCCN(C)Cc1c[nH]nc1[C@H]1CC[C@H](COCC(F)(F)F)CC1 [compound 24, N1,N2-dimethyl-N1-((3-((1r,4r)-4-((2,2,2-trifluoroethoxy)methyl)cyclohexyl)-1H-pyrazol-4-yl)methyl)ethane-1,2-diamine]",21.6
20,CNCCN(C)Cc1cn(C)nc1C1CCC(C)(C)[C@@H](C(=O)NCC(C)C)C1 (some centres unmarked) [compound 25],1610
